Assay results as given in article PMC4416922, “Measurement of Inositol 1,4,5-Trisphosphate in Living Cells Using an Improved Set of Resonance Energy Transfer-Based Biosensors” (PLoS ONE, 2015).
pKd: −log10 of the molar value.

What was measured:
Assay in all cases: [3H]InsP3 radioligand displacement on purified recombinant protein, Scatchard analysis
[1] = biological target: T1, human type-I InsP 3 receptor ligand binding domain (InsP3R-LBD) (Homo sapiens, UniProt Q14643, R568K)
T1 construct: gene ITPR1; residues 224-605, mRFP- and 6xHis-tagged
T1 sequence (Q14643 224-605 R568K): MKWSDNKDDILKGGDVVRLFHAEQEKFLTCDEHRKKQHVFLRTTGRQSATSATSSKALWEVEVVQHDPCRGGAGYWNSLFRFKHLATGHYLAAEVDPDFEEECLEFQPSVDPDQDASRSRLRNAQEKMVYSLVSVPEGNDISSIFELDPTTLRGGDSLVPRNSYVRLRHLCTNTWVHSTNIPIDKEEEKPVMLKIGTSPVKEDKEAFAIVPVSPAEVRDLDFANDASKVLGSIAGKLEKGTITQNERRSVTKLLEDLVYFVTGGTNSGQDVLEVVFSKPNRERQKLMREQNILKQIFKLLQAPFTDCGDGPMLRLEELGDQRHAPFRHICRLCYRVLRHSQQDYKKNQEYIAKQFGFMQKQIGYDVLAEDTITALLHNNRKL

[2] = biological target: T2, human type-I InsP 3 receptor ligand binding domain (InsP3R-LBD) (Homo sapiens, UniProt Q14643, R265K)
T2 construct: gene ITPR1; residues 224-605, mRFP- and 6xHis-tagged
T2 sequence (Q14643 224-605 R265K): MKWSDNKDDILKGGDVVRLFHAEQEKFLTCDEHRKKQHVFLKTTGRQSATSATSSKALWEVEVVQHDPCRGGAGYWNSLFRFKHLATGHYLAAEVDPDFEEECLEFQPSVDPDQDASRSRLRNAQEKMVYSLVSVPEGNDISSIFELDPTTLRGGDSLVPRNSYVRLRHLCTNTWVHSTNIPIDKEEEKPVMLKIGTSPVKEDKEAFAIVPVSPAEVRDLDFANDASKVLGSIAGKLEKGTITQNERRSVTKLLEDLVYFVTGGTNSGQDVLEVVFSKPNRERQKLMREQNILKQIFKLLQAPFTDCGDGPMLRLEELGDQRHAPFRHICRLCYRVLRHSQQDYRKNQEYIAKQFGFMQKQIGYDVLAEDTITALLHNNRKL

[3] = biological target: T3, human type-I InsP 3 receptor ligand binding domain (InsP3R-LBD) (Homo sapiens, UniProt Q14643, R269K)
T3 construct: gene ITPR1; residues 224-605, mRFP- and 6xHis-tagged
T3 sequence (Q14643 224-605 R269K): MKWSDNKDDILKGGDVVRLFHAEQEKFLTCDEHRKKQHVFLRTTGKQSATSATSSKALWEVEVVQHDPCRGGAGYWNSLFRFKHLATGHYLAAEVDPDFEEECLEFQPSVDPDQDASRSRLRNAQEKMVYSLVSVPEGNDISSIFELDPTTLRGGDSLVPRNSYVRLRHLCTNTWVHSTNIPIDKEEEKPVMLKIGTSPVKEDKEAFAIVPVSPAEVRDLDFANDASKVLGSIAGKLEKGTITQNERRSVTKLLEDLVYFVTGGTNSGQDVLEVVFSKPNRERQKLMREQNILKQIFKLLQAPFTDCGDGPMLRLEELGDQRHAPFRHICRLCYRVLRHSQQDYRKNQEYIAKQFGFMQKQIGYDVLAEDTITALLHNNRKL

[4] = biological target: T4, human type-I InsP 3 receptor ligand binding domain (InsP3R-LBD) (Homo sapiens, UniProt Q14643)
T4 construct: gene ITPR1; residues 224-605, mRFP- and 6xHis-tagged
T4 sequence (Q14643 224-605): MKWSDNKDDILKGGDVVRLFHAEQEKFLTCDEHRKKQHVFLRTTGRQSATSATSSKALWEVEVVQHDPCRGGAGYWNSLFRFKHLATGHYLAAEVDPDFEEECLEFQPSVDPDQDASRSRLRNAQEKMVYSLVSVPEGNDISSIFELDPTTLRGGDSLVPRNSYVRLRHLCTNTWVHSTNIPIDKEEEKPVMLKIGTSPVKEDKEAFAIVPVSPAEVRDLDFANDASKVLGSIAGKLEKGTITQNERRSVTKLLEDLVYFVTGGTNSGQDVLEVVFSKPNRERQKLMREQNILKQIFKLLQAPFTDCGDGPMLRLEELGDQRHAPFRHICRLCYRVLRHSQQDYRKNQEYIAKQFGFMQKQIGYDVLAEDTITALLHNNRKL

With `O=P(O)(O)O[C@@H]1[C@H](O)[C@H](O)[C@@H](OP(=O)(O)O)[C@H](OP(=O)(O)O)[C@H]1O` [InsP 3] the pKd [1] was 8.28, the pKd [2] was 8.22 and the pKd [3] was 8.00. For the same molecule, the pKd [4] was 8.52.
